From publication PMC12316058 (Nature chemical biology, 2024)

What was measured:
[1] = molecular target: T1, Cs (R)-Bdh (Clostridium saccharoperbutylacetonicum, UniProt M1MWX5); experiment: specific activity, absorbance at […] nm; format: biochemical; details: 10 mM m-BDO, 4 mM NADP+, 50 mM glycine-NaOH pH 10.0
T1 sequence (M1MWX5 1-361): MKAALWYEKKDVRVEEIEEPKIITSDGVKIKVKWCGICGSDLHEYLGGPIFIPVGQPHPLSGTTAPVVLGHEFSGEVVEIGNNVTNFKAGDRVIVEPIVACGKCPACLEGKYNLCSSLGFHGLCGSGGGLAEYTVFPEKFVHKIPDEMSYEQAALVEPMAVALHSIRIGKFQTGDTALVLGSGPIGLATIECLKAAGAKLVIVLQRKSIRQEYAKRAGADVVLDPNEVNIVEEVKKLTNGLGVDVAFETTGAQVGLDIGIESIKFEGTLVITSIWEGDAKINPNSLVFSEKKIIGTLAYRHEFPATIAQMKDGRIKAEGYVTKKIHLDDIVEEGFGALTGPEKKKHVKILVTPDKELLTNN

[2] = molecular target: T2, Ll Nox (Lactococcus cremoris, UniProt A2RIB7); experiment: absorbance at […] nm, initial rates; format: biochemical; details: 50 mM Tris-Cl pH 7.0, 37 °C; O2 as acceptor
T2 sequence (A2RIB7 1-446): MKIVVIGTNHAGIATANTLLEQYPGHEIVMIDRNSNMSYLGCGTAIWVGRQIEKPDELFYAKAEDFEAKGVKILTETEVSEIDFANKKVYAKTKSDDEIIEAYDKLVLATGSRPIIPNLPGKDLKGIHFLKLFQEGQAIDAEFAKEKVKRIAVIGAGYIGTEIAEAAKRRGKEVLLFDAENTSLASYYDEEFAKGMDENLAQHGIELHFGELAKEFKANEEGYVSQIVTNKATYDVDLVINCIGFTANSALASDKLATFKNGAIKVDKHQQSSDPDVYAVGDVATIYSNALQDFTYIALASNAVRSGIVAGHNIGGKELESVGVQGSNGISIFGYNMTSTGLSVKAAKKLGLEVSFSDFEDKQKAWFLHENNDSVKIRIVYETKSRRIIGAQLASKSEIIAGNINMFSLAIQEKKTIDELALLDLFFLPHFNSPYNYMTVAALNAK

| Structure (SMILES) | specific activity [1] | kcat/Km app [2] |
| --- | --- | --- |
| NC(=O)c1ccc[n+]([C@@H]2O[C@H](COP(=O)(O)OP(=O)(O)OC[C@H]3O[C@@H](n4cnc5c(N)ncnc54)[C@H](OP(=O)(O)O)[C@@H]3O)[C@@H](O)[C@H]2O)c1 [NADP+] | We subsequently confirmed specific activity with NADP^+ | – |
| NC(=O)C1=CN([C@@H]2O[C@H](COP(=O)(O)O)[C@@H](O)[C@H]2O)C=CC1 [NMNH] | – | Ll Nox WT (gray) and Nox Ortho (yellow) toward NADH, NADPH and NMNH |
